Results taken from patent publication US12304890B2, “R-type pyridyloxycarboxylic acid, salt and ester derivative thereof, and preparation method therefor, and herbicidal composition and application thereof” (Qingdao Kingagroot Chemical Compound Co., Ltd., priority 2018, dated 2025).

What was measured:
Format in all cases: in vivo
[1] = system: Monocotyledonous and dicotyledonous weed seeds and main crop seeds; test: Post-emergence test experiment, other weeds and crops (Table 4, 1000 g a.i./ha); conditions: 3 weeks in greenhouse, fresh weight inhibition
Method in brief: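 Weed and crop seeds (wheat, corn, rice, soybean, cotton, oilseed, millet, sorghum) sown in soil pots in a greenhouse and sprayed at 2-3 leaf stage, 2 weeks after sowing. Compound in acetone/tween-80 with methyl oleate concentrate (1.5 L/ha) as synergist. Effect recorded as fresh-weight growth inhibition rate.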

[2] = system: Semen Euphorbiae Lathyridis; test: Post-emergence test experiment, Semen Euphorbiae Lathyridis; conditions: 3 weeks
Experimental: (§1) The above described growth inhibition rate is fresh weight inhibition rate.
(§2) Post-emergence test experiment: Monocotyledonous and dicotyledonous weed seeds and main crop seeds (i. e. wheat, corn, rice, soybean, cotton, oilseed, millet and sorghum.) were put into a plastic pot loaded with soil. Then covered with 0.5-2 cm soil, the seeds were allowed to grow in good greenhouse environment. The test plants were treated at 2-3 leaf stage 2 weeks after sowing. The test compounds of the invention were dissolved with acetone respectively, then added with tween-80, and using 1.5 liters per hectare of an emulsible concentrate of methyl oleate as a synergist, and diluted by certain amount of water to certain concentration. The solution was sprayed to the plants with a sprayer. Then the plants were cultured for 3 weeks in the greenhouse, and the experiment result of weed controlling effect was listed in tables 4-5.

rice = test: Post-emergence test experiment, rice (crop selectivity); conditions: 3 weeks
Experimental: as §1, §2

Digitaria sanguinalis = test: Post-emergence test experiment, Digitaria sanguinalis; conditions: for Digitaria sanguinalis, activity level (growth inhibition rate): 3 weeks; for Activity level (growth inhibition rate), Digitaria sanguinalis: 1000 g a.i./ha, 3 weeks in greenhouse, fresh weight inhibition
Method in brief: (§3)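 Pot-grown plants, sown 2 weeks earlier and at 2-3 leaves, received a foliar spray of compound in acetone/tween-80 with methyl oleate adjuvant. Effect was expressed as fresh weight inhibition rate after three further greenhouse weeks.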

Echinochloa crusgalli = test: Post-emergence test experiment, Echinochloa crusgalli; conditions: for Echinochloa crusgalli, activity level (growth inhibition rate): 3 weeks; for Activity level (growth inhibition rate), Echinochloa crusgalli: 1000 g a.i./ha, 3 weeks in greenhouse, fresh weight inhibition
Method in brief: as §3

[3] = 200 g a.i./ha, weed resistant to cyhalofop-butyl
[4] = 200 g a.i./ha, weed resistant to ALS inhibitor and ACCe herbicides

| SMILES | Activity level (growth inhibition rate), Abutilon theophrasti Medic. [1] | Activity level (growth inhibition rate), Galium aparine [1] | Activity level (growth inhibition rate), Monochoria Vaginalis [1] | Semen Euphorbiae Lathyridis, activity level (growth inhibition rate) [2, 3] | rice, activity level (growth inhibition rate) (rice; 200 g a.i./ha) | Digitaria sanguinalis, activity level (growth inhibition rate) (Digitaria sanguinalis; [3]) | Activity level (growth inhibition rate), Digitaria sanguinalis (Digitaria sanguinalis) | Echinochloa crusgalli, activity level (growth inhibition rate) (Echinochloa crusgalli; [4]) | Activity level (growth inhibition rate), Echinochloa crusgalli (Echinochloa crusgalli) | Semen Euphorbiae Lathyridis, activity level (growth inhibition rate) ([2]; 100 g a.i./ha, resistant weed) | Semen Euphorbiae Lathyridis, activity level (growth inhibition rate) ([2]; 400 g a.i./ha, resistant weed) | rice, activity level (growth inhibition rate) (rice; 100 g a.i./ha) | rice, activity level (growth inhibition rate) (rice; 400 g a.i./ha) | Digitaria sanguinalis, activity level (growth inhibition rate) (Digitaria sanguinalis; 100 g a.i./ha, resistant weed) | Digitaria sanguinalis, activity level (growth inhibition rate) (Digitaria sanguinalis; 400 g a.i./ha, resistant weed) | Echinochloa crusgalli, activity level (growth inhibition rate) (Echinochloa crusgalli; 100 g a.i./ha, resistant weed) | Echinochloa crusgalli, activity level (growth inhibition rate) (Echinochloa crusgalli; 400 g a.i./ha, resistant weed) |
| --- | --- | --- | --- | --- | --- | --- | --- | --- | --- | --- | --- | --- | --- | --- | --- | --- | --- |
| CCCCCCCCCCCOC(=O)[C@@H](C)Oc1nc(F)c(Cl)c(N)c1Cl [Compound 2-215] | 5 (Level 5: the growth inhibition rate is greater than 85%) | 5 (Level 5: the growth inhibition rate is greater than 85%) | 5 (Level 5: the growth inhibition rate is greater than 85%) | 5 (Level 5: the growth inhibition rate is greater than 85%) | 0 (Level 0: the growth inhibition rate is less than 5%) | 5 (Level 5: the growth inhibition rate is greater than 85%) | 5 (Level 5: the growth inhibition rate is greater than 85%) | 4 (Level 4: the growth inhibition rate is equal to or greater than 60% and less than 85%) | 5 (Level 5: the growth inhibition rate is greater than 85%) | – | – | – | – | – | – | – | – |
| CC(Oc1nc(F)c(Cl)c(N)c1Cl)C(=O)OCC1CCCO1 (stereo not shown) [Compound 2-298] | 5 (Level 5: the growth inhibition rate is greater than 85%) | 5 (Level 5: the growth inhibition rate is greater than 85%) | 5 (Level 5: the growth inhibition rate is greater than 85%) | 5 (Level 5: the growth inhibition rate is greater than 85%) | – | 5 (Level 5: the growth inhibition rate is greater than 85%) | 5 (Level 5: the growth inhibition rate is greater than 85%) | 5 (Level 5: the growth inhibition rate is greater than 85%) | 5 (Level 5: the growth inhibition rate is greater than 85%) | 5 (Level 5: the growth inhibition rate is greater than 85%) | 5 (Level 5: the growth inhibition rate is greater than 85%) | 0 (Level 0: the growth inhibition rate is less than 5%) | 1 (Level 1: the growth inhibition rate is equal to or greater than 5% and less than 20%) | 5 (Level 5: the growth inhibition rate is greater than 85%) | 5 (Level 5: the growth inhibition rate is greater than 85%) | 4 (Level 4: the growth inhibition rate is equal to or greater than 60% and less than 85%) | 5 (Level 5: the growth inhibition rate is greater than 85%) |
| CCCCC(C)OC(=O)[C@@H](C)Oc1nc(F)c(Cl)c(N)c1Cl (stereo partly shown) [Compound 2-113] | 5 (Level 5: the growth inhibition rate is greater than 85%) | 5 (Level 5: the growth inhibition rate is greater than 85%) | 5 (Level 5: the growth inhibition rate is greater than 85%) | 5 (Level 5: the growth inhibition rate is greater than 85%) | 0 (Level 0: the growth inhibition rate is less than 5%) | 5 (Level 5: the growth inhibition rate is greater than 85%) | 5 (Level 5: the growth inhibition rate is greater than 85%) | 5 (Level 5: the growth inhibition rate is greater than 85%) | 5 (Level 5: the growth inhibition rate is greater than 85%) | – | – | – | – | – | – | – | – |
| CCCCCSC(=O)[C@@H](C)Oc1nc(F)c(Cl)c(N)c1Cl [Compound 2-86] | 5 (Level 5: the growth inhibition rate is greater than 85%) | 5 (Level 5: the growth inhibition rate is greater than 85%) | 5 (Level 5: the growth inhibition rate is greater than 85%) | 5 (Level 5: the growth inhibition rate is greater than 85%) | 0 (Level 0: the growth inhibition rate is less than 5%) | 5 (Level 5: the growth inhibition rate is greater than 85%) | 5 (Level 5: the growth inhibition rate is greater than 85%) | 5 (Level 5: the growth inhibition rate is greater than 85%) | 5 (Level 5: the growth inhibition rate is greater than 85%) | – | – | – | – | – | – | – | – |
| CCSC(=O)[C@@H](C)Oc1nc(F)c(Cl)c(N)c1Cl [Compound 2-72] | 5 (Level 5: the growth inhibition rate is greater than 85%) | 5 (Level 5: the growth inhibition rate is greater than 85%) | 5 (Level 5: the growth inhibition rate is greater than 85%) | 5 (Level 5: the growth inhibition rate is greater than 85%) | 0 (Level 0: the growth inhibition rate is less than 5%) | 5 (Level 5: the growth inhibition rate is greater than 85%) | 5 (Level 5: the growth inhibition rate is greater than 85%) | 5 (Level 5: the growth inhibition rate is greater than 85%) | 5 (Level 5: the growth inhibition rate is greater than 85%) | – | – | – | – | – | – | – | – |
| CCCC(C)COC(=O)[C@@H](C)Oc1nc(F)c(Cl)c(N)c1Cl (stereo partly shown) [Compound 2-103] | 5 (Level 5: the growth inhibition rate is greater than 85%) | 5 (Level 5: the growth inhibition rate is greater than 85%) | 5 (Level 5: the growth inhibition rate is greater than 85%) | 5 (Level 5: the growth inhibition rate is greater than 85%) | 0 (Level 0: the growth inhibition rate is less than 5%) | 5 (Level 5: the growth inhibition rate is greater than 85%) | 5 (Level 5: the growth inhibition rate is greater than 85%) | 5 (Level 5: the growth inhibition rate is greater than 85%) | 5 (Level 5: the growth inhibition rate is greater than 85%) | – | – | – | – | – | – | – | – |
| CCCCOCCOC(=O)C(C)Oc1nc(F)c(Cl)c(N)c1Cl (stereo not shown) [Compound 2-271] | 5 (Level 5: the growth inhibition rate is greater than 85%) | 5 (Level 5: the growth inhibition rate is greater than 85%) | 5 (Level 5: the growth inhibition rate is greater than 85%) | 5 (Level 5: the growth inhibition rate is greater than 85%) | 0 (Level 0: the growth inhibition rate is less than 5%) | 5 (Level 5: the growth inhibition rate is greater than 85%) | 5 (Level 5: the growth inhibition rate is greater than 85%) | 5 (Level 5: the growth inhibition rate is greater than 85%) | 5 (Level 5: the growth inhibition rate is greater than 85%) | – | – | – | – | – | – | – | – |
